Measurements published in publication PMC6325219, “Preclinical Characterization of NVR 3-778, a First-in-Class Capsid Assembly Modulator against Hepatitis B Virus” (Antimicrobial Agents and Chemotherapy, 2018).
Like-named read-outs stand apart in the source and are kept apart here. Marks after values point to notes of the source that are not given here.

Columns and labels:
[1] = system: HBV; experiment: De novo infection study using PHH; type: cell-based; conditions: Hepatitis B virus
Procedure: Cryopreserved PHH (Life Technologies) were seeded at 40,000 cells/well 1 day before infection. The HBV inoculum, concentrated from the supernatants of HepG2.2.15 cells, was prepared at 200 genome equivalents/cell in PHH medium (DMEM containing 10% FBS and a supplement cocktail containing HEPES, L-proline, insulin epidermal growth factor, dexamethasone, and ascorbic acid-2-phosphate, as previously described) with 2% DMSO and 4% polyethylene glycol (PEG) 8000 (Sigma). Compounds were serially diluted in DMSO at 50-fold strength and added to PHH medium containing the HBV inoculum, prior to infecting the PHH. After overnight incubation, the infection mixtures were removed and the cells were replenished with PHH medium containing freshly diluted compounds. On day 5 and day 8 postinfection, the media containing the compounds were removed and the cells were replenished with PHH medium containing freshly diluted compounds. Supernatants and cells were harvested for antiviral and viability assays on day 11 postinfection. HBV DNA, HBsAg, and HBeAg were determined from the supernatants of infected PHH using bDNA assays (Affymetrix) and HBsAg or HBeAg chemiluminescence immunoassay kits (Autobio), as recommended by the manufacturers. Intracellular total HBV RNA mRNA and host mRNA levels were monitored by using the QuantiGene assays (Affymetrix) and probe sets that hybridized to the X region, which is common to all HBV transcripts, and the host β-actin mRNA, respectively.

[2] = system: HBV core protein variant I105L; experiment: Transient-transfection antiviral study in HepG2 cells, core variant I105L; type: cell-based, hepatitis B virus; conditions: for EC50 FC, I105L: ratio of mean EC50 for core variant over wild-type HBV
Procedure: (§4) Cells were cotransfected with the HBV plasmids (100 ng/well) and a Gaussia expression plasmid (10 ng/well) (Thermo Scientific) using the Lipofectamine LTX Plus transfection reagent (Life Technologies). Transfection mixtures were removed after overnight incubation, and cells were treated with serially diluted NVR 3-778 at a final dimethyl sulfoxide (DMSO) concentration of 0.5%. After 3 days of incubation with the compound, the supernatants were collected and secreted Gaussia luciferase was measured using a Gaussia Flash luciferase assay kit (Thermo Scientific). […] Samples were diluted into lysis buffer (Affymetrix) containing 2.5 µg proteinase K (Affymetrix) at 50°C for 40 min. Intracellular encapsidated HBV DNA was denatured for 30 min at 25°C in 0.2 M NaOH (Sigma) and incubated with HBV DNA probes designed to hybridize to the minus-strand HBV DNA (Affymetrix). The denatured DNA was subsequently detected using a QuantiGene assay kit, according to the branched DNA (bDNA) assay recommended by the manufacturer (Affymetrix).

[3] = system: HBV core protein variant I105V; experiment: Transient-transfection antiviral study in HepG2 cells, core variant I105V; type: cell-based, hepatitis B virus; conditions: for EC50 FC, I105V: ratio of mean EC50 for core variant over wild-type HBV
Procedure: as §4

[4] = system: HBV rtL180M/M204V/N236T variant; experiment: microbe, parasite or virus in culture; type: cell-based, hepatitis B virus
Description: (§1) Plasmids containing HBV DNA with rtN236T, rtA181V, rtA181V/N236T, and rtL180M/M204V/N236T were generated using the GT B WT or rtL180M/M204V DNA-containing plasmids and site-directed mutagenesis (Agilent Technologies). A panel of nine different HBV core variants (cW102G, cW102R, cI105V, cI105L, cI105T, cT109S, cT109M, cT109I, and cY118F) was generated, also using the GT B WT DNA-containing plasmid and site-directed mutagenesis. The full-length genome from all plasmids was sequenced to confirm that only the intended nucleotide change(s) was present. Finally, HBV sequences from genotypes A (GenBank accession number AF305422), C (GenBank accession number AB033550), D (GenBank accession number V01460), E (GenBank accession number AB274971), F (GenBank accession number AB036912), G (GenBank accession number AF160501), and H (GenBank accession number AB375159) were gene synthesized as 1.1 times the genome length together with part of the CMV promoter at the 5′ end. The gene-synthesized piece was validated by sequencing and subcloned into the pCMV-HBV plasmid using the restriction sites SalI and NdeI (Genewiz, USA).
(§2) HepG2 cells were seeded in 96-well plates at a density of 20,000 cells/well and allowed to attach overnight at 37°C in 5% CO2. Cells were cotransfected with the HBV plasmids (100 ng/well) and a Gaussia expression plasmid (10 ng/well) (Thermo Scientific) using the Lipofectamine LTX Plus transfection reagent (Life Technologies). Transfection mixtures were removed after overnight incubation, and cells were treated with serially diluted NVR 3-778 at a final dimethyl sulfoxide (DMSO) concentration of 0.5%. After 3 days of incubation with the compound, the supernatants were collected and secreted Gaussia luciferase was measured using a Gaussia Flash luciferase assay kit (Thermo Scientific). Cells were lysed with 0.33% NP-40 (Thermo Scientific), and the cytoplasmic fractions were treated with 2 units of Turbo DNase (Invitrogen) and 10 units of S7 nuclease (Roche) in CutSmart buffer (New England Biolabs) containing 25 µM CaCl2 (G-Biosciences) at 37°C for 60 min, followed by inactivation of the enzymes at 75°C for 15 min. Samples were diluted into lysis buffer (Affymetrix) containing 2.5 µg proteinase K (Affymetrix) at 50°C for 40 min. Intracellular encapsidated HBV DNA was denatured for 30 min at 25°C in 0.2 M NaOH (Sigma) and incubated with HBV DNA probes designed to hybridize to the minus-strand HBV DNA (Affymetrix). The denatured DNA was subsequently detected using a QuantiGene assay kit, according to the branched DNA (bDNA) assay recommended by the manufacturer (Affymetrix).
(§3) To determine percent inhibition, the mean background signal from wells containing only culture medium was subtracted from the signal for all other samples, and percent inhibition at each compound concentration was calculated by normalization to the signals for HepG2.2.15 cells treated with 0.5% DMSO. […] Both CalcuSyn and MacSynergy II (Ann Arbor, MI) software were used to evaluate the effect of compound combinations ([27]). After data analysis at the 95% confidence level, values of synergy or antagonism of <25 µM^2% were defined as insignificant, those between 25 and 50 µM^2% were defined as minor, those between 50 and 100 µM^2% were defined as moderate, and those of >100 µM^2% were defined as strong.

[5] = system: HBV rtL180M/M204V variant; experiment: microbe, parasite or virus in culture; type: cell-based, hepatitis B virus
Description: as §1, §2, §3

[6] = system: HBV GT B (wild-type HBV); experiment: Transient-transfection antiviral study in HepG2 cells, GT B (wild-type HBV); type: cell-based, hepatitis B virus; conditions: for EC50: Hepatitis B virus; for EC50 FC, wild type: reference, ratio to wild-type HBV
Procedure: as §4

[7] = system: HBV rtA181V/N236T variant; type: cell-based, hepatitis B virus; conditions: ratio of mean EC50 against variant over WT HBV, HepG2 cells
Description: as §1, §2, §3

[8] = system: HBV rtN236T variant; type: cell-based, hepatitis B virus; conditions: ratio of mean EC50 against variant over WT HBV, HepG2 cells
Description: as §1, §2, §3

[9] = design: method as in PMID 29079518; conditions: humanized mice; cited from earlier work
[10] = 264 h, PHH from three donors, compound added with inoculum, 11 days, read-out: EC50, HBV DNA
[11] = 264 h, PHH from three donors, compound added with inoculum, 11 days, read-out: EC50, HBeAg
[12] = 264 h, PHH from three donors, compound added with inoculum, 11 days, read-out: EC50, HBsAg
[13] = 264 h, PHH from three donors, compound added with inoculum, 11 days, read-out: EC50, intracellular HBV RNA
[14] = 264 h, PHH from three donors, compound added with inoculum, 11 days, read-out: EC90, HBV DNA
[15] = 264 h, PHH from three donors, compound added with inoculum, 11 days, read-out: EC90, HBeAg
[16] = 264 h, PHH from three donors, compound added with inoculum, 11 days, read-out: EC90, HBsAg
[17] = 264 h, PHH from three donors, compound added with inoculum, 11 days, read-out: EC90, intracellular HBV RNA
[18] = ratio of mean EC50 against variant over WT HBV, HepG2 cells

| SMILES | EC50 [1, 10] [µM] | EC50 [1, 11] [µM] | EC50 [1, 12] [µM] | EC50 [1, 13] [µM] | EC90 [1, 14] [µM] | EC90 [1, 15] [µM] | EC90 [1, 16] [µM] | EC90 [1, 17] [µM] | EC50 FC, I105L [2] [fold] | EC50 FC, I105V [3] [fold] | EC50 ([6]; HepG2, read-out: WT EC50) [µM] | EC50 FC, wild type [6] [fold] | other results |
| --- | --- | --- | --- | --- | --- | --- | --- | --- | --- | --- | --- | --- | --- |
| Nc1ccn([C@@H]2CS[C@H](CO)O2)c(=O)n1 [LMV, lamivudine, reference compound] | 0.016 ± 0.01 | > 30 | > 30 | > 30 | 0.066 ± 0.01 | > 30 | > 30 | > 30 | 1.3 | 0.84 | 0.53 ± 0.12 | 1 | EC50 ([4]; Hepatitis B virus, HepG2, read-out: EC50, rtL180M/M204V/N236T variant): > 100 µM; EC50 ([5]; Hepatitis B virus, HepG2, read-out: EC50 (mean), rtL180M/M204V variant): > 100 µM |
| O=C(Nc1cc(F)c(F)c(F)c1)c1ccc(F)c(S(=O)(=O)N2CCC(O)CC2)c1 [NVR 3-778] | 0.81 ± 0.18 | 4.5 ± 0.82 | 4.8 ± 0.98 | 3.7 ± 0.22 | 5.4 ± 2 | 8.9 ± 1.2 | 10.2 ± 3 | 11.6 ± 2.7 | 1.5 | 1.8 | 0.31 ± 0.1 | 1 | EC50 ([1]; PHH, de novo infection, range over HBsAg, HBeAg, HBV RNA, read-out: EC50 values against the production of HBV antigens and intracellular HBV RNA): 3.7 to 4.8 µM; EC50 ([2]; Hepatitis B virus, HepG2, read-out: EC50, core variant I105L): 0.34 ± 0.13 µM; EC50 fold change, rtA181V/N236T [7]: 0.85 ± 0.26^d fold; EC50 fold change, rtN236T [8]: 0.85 ± 0.40^d fold; Plasma trough concentrations, all mice [9]: at least 3 µM; EC50 ([3]; Hepatitis B virus, HepG2, read-out: EC50, core variant I105V): 0.41 ± 0.11 µM; EC50 fold change, rtL180M/M204V/N236T [4, 18]: 1.4 ± 0.5^d fold; EC50 fold change, rtL180M/M204V [5, 18]: 1.3 ± 0.6^d fold; EC50 ([6]; HepG2, 72 h, read-out: EC50 (mean), HBV GT B): 0.2 µM; EC50 ([6]; HepG2, read-out: EC50, wild type HBV): 0.23 ± 0.11 µM |
